# Reference: patent US11419843B2, “Small molecule BCL-2 functional converters as cancer therapeutics” (Oregon State University, priority 2016, dated 2022)
# Read-outs that look alike come from different tables or passages of the source.
# Columns and labels:
# [1] = system: Bcl-2 low and high expressing Jurkat lymphoma cells (Jurkat/Vector, Jurkat/Bcl-2); test: Cell viability in Bcl-2 low and high expressing Jurkat cells; assay type: cell-based, human
# [2] = system: LNCaP, HepG2, H460, A375, U251, ZR-75-1 cells; test: Viability of a range of cancer cell types; assay type: cell-based, human
# Description: Cell titer glo assay (Promega, CA) was used for assessing viability as per manufacturer instructions. DAPI stain was used to assess apoptosis.
# [3] = system: MDA-MB-231/Vector and MDA-MB-231/Bcl-2 cells; test: Clonogenic survival of MDA-MB-231 cells; assay type: cell-based, human
# LMD231-Luc cells = test: Breast cancer lung metastasis model (tail vein, bioluminescence); assay type: in vivo, nude mice; settings: for Growth of lung metastasis (bioluminescence): intraperitoneal, end of 7 weeks
# Method: FIG. 19A About 200,000 LMD-231 cells stably expressing luciferase was injected into the tail vein of 6 week old nude mice. Lung metastasis was formed in 2 weeks. Mice were treated with 100 mg/kg BFC1108 4 times a week by intraperitoneal route. Bioluminescent imaging was performed once a week and quantified.
# About 200,000 LMD-231 cells stably expressing luciferase was injected into the tail vein of 6 week old nude mice. Lung metastasis was detectable in 2 weeks after injection of tumor cells. Mice were treated with 50 mg/kg of BFC1103 6 times a week by intraperitoneal injections. Bioluminescent imaging was performed once a week and quantified. * P<0.05.
# For the lung metastatic study, 5 week old Nude mice were procured from Jackson Labs. About 200,000 LMD231-Luc2 cells in PBS were injected into the tail vein. Lung metastasis could be detected in 2 weeks' time. Treatments with BFC1108 at 100 mg/kg, 4 times a week, were started a day after the cells were injected. Body weight was measured twice a week. Bioluminescence was measured once a week while the mice are under anesthesia. At the end of the study mice were euthanized and lung tissues were dissected and fixed for immunohistochemical analysis.
# For experimental lung metastases model, LMD-231 cells derived from MDA-MB-231 that repeatedly colonized lungs were used23. Lenti viral particles with luciferase expression vector (GenTarget, San Diego, Calif.) was used to transduce LMD-231 cells to obtain high luciferase expressing clone after clonal expansion. The stable expression of luciferase was monitored for 7 weeks in vitro before using in animal experiments.
# All animal experiments were performed as per approved protocols from the IACUC at Oregon State University. 5 week old nude mice were procured from Jackson Labs (Bar Harbor, Me.). Treatments were started a day after the LMD-Luc cells (200,000 cells suspended in DPBS) were injected into the lateral tail vein. Body weight was measured twice a week. Bioluminescence was measured twice a week using IVIS Lumina II (PerkinElmer, Waltham, Mass.) as per manufacturer instructions, while the mice were under anesthesia.
# [4] = system: H460 parental and derived paclitaxel resistant cells; test: Viability of H460 parental and paclitaxel resistant cells; assay type: cell-based, human; settings: for Viability of H460 resistant vs parental line: 72 hours
# Method: Percentage viability relative to vehicle treatment was calculated. Representative of three independent assays conducted in triplicate.
# FIG. […] Percentage viability relative to vehicle treatment. Representative of three independent assays conducted in triplicate.
# Representative of three independent assays conducted in triplicate.
# Cell lines were obtained from ATCC and maintained according to manufacturer's instructions. The human lung cancer cell line NCI-H460, H69AR (ATCC) were cultured in RPMI medium (Corning) containing 10% FBS. The human breast cancer cell line MDA-MB-231 was cultured in DMEM medium (Corning) containing 10% FBS. All cell lines were maintained at 5% CO2 and 37° C. Paclitaxel resistant H460 cells were derived by treating cells once a week over 6 weeks, initially with 1 nM paclitaxel and then increasing dose incrementally up to 100 nM. Once resistance was confirmed, paclitaxel was withdrawn from the cells. Resistance to paclitaxel was maintained without presence of paclitaxel measured up to 2 months. A parental line was maintained for a similar number of passages as the resistant line. All experiments were performed using cells that had not been treated with paclitaxel in at least three passages.
# Cells of interest were plated at 2000 cells per well in 96-well black tissue culture plate and allowed to adhere to the plate overnight. Viability assays were performed using 10% serum medium unless otherwise stated. Drugs were diluted in supplemented tissue culture medium and added at increasing concentrations, with DMSO as a vehicle control. […] Luminescence was measured using Tropix TR717 Microplate luminometer. Percentage of viable cells is relative to vehicle (100%). As a complementary viability assay, eBioscience Fixable Viability Dye eFluor 660(65-0864) was used to stain dead cells and analyzed using flow cytometry.
# Bcl-2 = Bcl-2 (Homo sapiens, UniProt P10415); test: Bcl-2 conformational change by Bcl-2 BH3 domain antibody and flow cytometry; settings: 10 μM, 10% serum
# Sequence of Bcl-2 (P10415 whole entry, the tested form may be a part): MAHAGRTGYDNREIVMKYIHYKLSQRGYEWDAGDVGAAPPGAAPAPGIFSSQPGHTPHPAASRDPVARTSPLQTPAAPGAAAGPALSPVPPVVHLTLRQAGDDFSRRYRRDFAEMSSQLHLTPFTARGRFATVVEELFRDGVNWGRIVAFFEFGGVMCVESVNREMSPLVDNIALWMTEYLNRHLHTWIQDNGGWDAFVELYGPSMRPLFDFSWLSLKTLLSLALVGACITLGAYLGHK
# Method: MDA-MB231/Bcl-2 cells and H460 cells were exposed to MTX at 10 μM concentration for 24 h in a medium containing 10% serum. Change in Bcl-2 conformation was determined using Bcl-2 BH3 only anti-body followed by flow cytometric analysis.
# Change in conformation of Bcl-2 was determined by using Bcl-2 BH3 antibody followed by flow cytometric analysis.
# Change in conformation of Bcl-2 was determined by using Bcl-2 BH3 only antibody followed by flow cytometric analysis.
# When there is a conformational change in Bcl-2 protein, the BH3 domain is exposed and is detected by the Bcl-2 BH3 domain antibody.
# [5] = system: MDA-MB-231 cells with or without the Bcl-2 expression vector; test: Apoptosis in MDA-MB-231 cells (DAPI, annexin V staining); assay type: cell-based, human; settings: 10% FBS
# MDA-MB-231/Bcl-2 cells = test: Orthotopic breast cancer xenograft in mammary fat pad; assay type: in vivo, NOD SCID mice; settings: 100 mg/kg twice a week; for Immunohistochemistry of tumor sections (TUNEL, Bcl-2 BH3, activated Bax, cleaved caspase-3): end of the study; for Tumor growth: intraperitoneal
# Method: […] were implanted in the mammary fat pad of NOD SCID mice (N=10). Once palpable tumors were formed MTX was treated at 100 mg/kg twice a week by intraperitoneal injections. Tumor measurements were made with digital calipers twice a week.
# 106 MDA-MB-231/Bcl-2 cells were implanted in the mammary fat pad of NOD. SCID mice (n=8 per group). Once palpable tumors formed, mice were treated with 100 mg/kg BFC1108 twice a week by i.p. route. Tumor measurements were made with digital calipers twice a week.
# All animal experiments were performed as per approved protocols from the IACUC at Oregon State University. 5 week old NOD.SCID mice were procured from Jackson Labs. Treatments were started once palpable tumors were detected. MTX was treated twice a week at 100 mg/kg dose. Body weight was measured twice a week. Tumor burden was measured twice a week using digital calipers.
# All animal experiments were performed as per approved protocols from the IACUC at Oregon State University. For the mammary fat pad xenograft study, 5 week old NOD.SCID mice were procured form Jackson labs. About 10^6 cells were injected into both the lower flanks of mammary fat pad in PBS. Palpable tumors were detected in 4 weeks after which treatment with BFC1108 at 100 mg/kg twice a week continued till end of the study. Tumor mass was measured using digital calipers twice a week along with body weight. At the end of the study mice were euthanized and tumors were collected for immunohistochemical analysis.
# [6] = mice; cited from earlier work
# [7] = humans; cited from earlier work
# [8] = 10 μM, 48 h, colony formation for 2 weeks
smiles,measurement,setting,value
"CCCCc1ccc(NC(=O)CN(Cc2ccccc2)S(C)(=O)=O)cc1 [BFC1103, N-2-benzyl-N-1-(4-butylphenyl)-N-2-(methylsulfo-nyl) glycinamide]","Bcl-2 dependent effect on viability, Jurkat/Bcl-2 vs control","[1]; 10 μM, 24 h, 10% serum","reduced the viability of Jurkat human T cell leukemia cells with high Bcl-2 expression, compared to control cells"
same,Viability of various cancer cell lines,"[2]; 24 h, 10% FBS","reduced the viability of a host of cancer cell types including breast cancer ZR-75-1, non-small cell lung cancer H460, melanoma A375, liver cancer HepG2, and prostate cancer LNCaP cells"
same,Clonogenic survival of MDA-MB-231 cells over-expressing Bcl-2 vs control cells,[3]; [8],"formed significantly fewer colonies, compared to control cells"
same,H&E analysis of lung tissue,"LMD231-Luc cells; 50 mg/kg, 6 days per week",potent suppression of tumor growth
same,Ki67 staining of lung tissue,"LMD231-Luc cells; 50 mg/kg, 6 days per week","lung tissues from vehicle treated mice had a significantly higher number of proliferating cells, as measured by Ki67 staining, than the BFC1103 treated mice"
same,Growth of lung metastasis (bioluminescence),"LMD231-Luc cells; 50 mg/kg, 6 days per week",significantly suppressed the growth of lung metastasis
same,Viability of H460 resistant vs parental line,[4],reduced viability of resistant line preferentially
same,Change in Bcl-2 conformation (BH3 domain exposure) in MDA-MB-231/Bcl-2 cells,Bcl-2; 48 h,changed conformation of Bcl-2 of was detected in MDA-MB-231/Bcl-2 cells
"CCOc1ccccc1NC(=O)c1cc(Cl)ccc1NC(=O)c1ccc(OC)cc1 [BFC1108, 5-chloro-N-(2-ethoxyphenyl)-2-[(4-methoxybenzoyl)amino]-benzamide]","Bcl-2 dependent effect on viability, Jurkat/Bcl-2 vs Jurkat/Vector","[1]; 48 h, 10% FBS",reduction in viability was seen compared to their Bcl-2 low-expressing control cells
same,Viability of a range of cancer cell types,"[2]; 48 h, 10% serum","reduce viability in a variety of cancer cell types including LNCaP, HepG2, H460, A375 and U251"
same,Apoptosis by annexin V staining,"[5]; 10 μM, 48 h",increased apoptosis in MDA-MB-231/Bcl-2 cells was observed
same,Effect on colony forming ability of low Bcl-2 expressing 231/Vector control cells,[3]; [8],not seen
same,Reduction in colony forming ability of MDA-MB-231/Bcl-2 cells compared to vehicle controls,[3]; [8],50%
same,"Immunohistochemistry of tumor sections (TUNEL, Bcl-2 BH3, activated Bax, cleaved caspase-3)",MDA-MB-231/Bcl-2 cells,functional conversion of Bcl-2 leading to activation of intrinsic mitochondrial death pathway was validated in vivo
same,Tumor growth,MDA-MB-231/Bcl-2 cells,significantly reduced the growth of a xenograft tumor
same,Ki-67 staining of lung tissue,"LMD231-Luc cells; 100 mg/kg, 4 times a week",only vehicle treated animals showed Ki-67 positivity
same,Growth of lung metastasis (bioluminescence),"LMD231-Luc cells; 100 mg/kg, 4 times a week",suppressed the growth of lung metastasis
same,Viability of H460 resistant vs parental line,[4],reduced viability of resistant line preferentially
same,"Cell viability, combination with paclitaxel","[4]; paclitaxel 1 nM and BFC1108 20 μM, 24 hours",synergistic reduction in cell viability
same,Change in Bcl-2 conformation (BH3 domain exposure) in MDA-MB-231/Bcl-2 cells,Bcl-2; 48 h,changed conformation of Bcl-2 was detected
"CN(Cc1cnc2nc(N)nc(N)c2n1)c1ccc(C(=O)N[C@@H](CCC(=O)O)C(=O)O)cc1 [MTX, (2S)-2-[[4-[(2,4 diaminopteridin-6-yl)methylmethylamino]benzoyl]amino] pentanedioc acid]",Bcl-2 dependent effects in Jurkat Lymphoma cells,[1]; Bcl-2 low and high expressing Jurkat lymphoma cells treated for 72 hours with various concentrations,Yes
same,minimal effective concentration,"[1]; Homo sapiens, Jurkat lymphoma cells, 72 hours, n/d means no reduction was detected at concentrations tested, read-out: Lowest effective dose (minimal effective concentration that induced Bcl-2-dependent reduction in cell viability)",0.01 µM
same,Viability of Jurkat/Bcl-2 vs Vector under hypoxic conditions,"[1]; hypoxic conditions, 10% FBS, 24 h",significant reduction in viability of Jurkat/Bcl-2 cells compared to their Vector control
same,Bcl-2 dependent apoptosis with folate supplementation,[1]; supplemented with 1 μM of folic acid,Bcl-2 dependent apoptosis was still observed
same,Apoptosis by nuclear condensation and fragmentation (DAPI),[5]; 10 μM,higher apoptosis rate in the presence of the Bcl-2 protein
same,Apoptosis by annexin V staining,[5]; indicated concentrations,increased apoptosis in the presence of the Bcl-2 protein
same,Reduction in colonies formed by MDA-MB-231/Bcl-2 cells compared to vector controls,"[3]; 10 μM MTX, 24 h",60%
same,"Immunohistochemistry of tumor sections (TUNEL, Bcl-2 BH3, activated Bax, cleaved caspase-3)",MDA-MB-231/Bcl-2 cells,caused a change in conformation of Bcl-2 and induced apoptosis in Bcl-2 over-expressing tumors
same,Tumor growth,MDA-MB-231/Bcl-2 cells,significant inhibition of tumor growth
same,half-life,[6],0.5 h
same,half-life,[7],7 to 10 h
same,Change in Bcl-2 conformation (BH3 domain exposure) in H460 cells,Bcl-2; 24 h,also observed in H460 cells
same,Change in Bcl-2 conformation (BH3 domain exposure) in MDA-MB-231/Bcl-2 cells,Bcl-2; 24 h,considerable shift in the staining of MTX treated cells indicating change in the Bcl-2 conformation
